Test results taken from PMC11836371, “Virtual fragment screening for DNA repair inhibitors in vast chemical space” (Nature Communications, 2025).
“And” between values parts separate entries of the source, which are not always exact repeats. Identical values can stand only once. Like-named read-outs stand apart in the source and are kept apart here.

How the values were obtained:
[1] = biological target: T1, human OGG1 enzyme (Homo sapiens, UniProt O15527); assay: OGG1 glycosylase activity assay (enzyme inhibition, APE1-coupled fluorescence); assay type: biochemical
T1 sequence (O15527 whole entry): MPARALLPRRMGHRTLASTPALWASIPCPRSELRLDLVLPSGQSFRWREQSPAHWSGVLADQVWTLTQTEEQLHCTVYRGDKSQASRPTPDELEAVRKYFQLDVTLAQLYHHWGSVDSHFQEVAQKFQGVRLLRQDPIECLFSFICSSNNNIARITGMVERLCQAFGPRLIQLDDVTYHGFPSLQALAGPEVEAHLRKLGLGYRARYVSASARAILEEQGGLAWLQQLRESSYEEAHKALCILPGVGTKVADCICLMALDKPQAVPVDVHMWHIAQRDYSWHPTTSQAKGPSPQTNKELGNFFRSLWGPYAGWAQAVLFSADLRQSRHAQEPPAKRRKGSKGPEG

[2] = biological target: T1, human OGG1 enzyme; assay: Differential scanning fluorimetry (DSF) thermal shift assay; assay type: binding; conditions: 99 μM
Experimental: The temperature was increased from 20 °C to 85 °C with 10 readings/degree. Tm values were calculated using an excel template and fitting to the Boltzmann equation in Prism v.6.07 (GraphPad Software).

[3] = tested on: NF-κB activation in HEK293T pGF NF-κB cells; assay: TNF-α induced NF-κB activation assay; assay type: cell-based; conditions: Homo sapiens, HEK-293T; NFκB activation assay; ± SD; read-out: pEC50 (converted)
Experimental: The inhibition of TNF-α induced NF-κB activation was measured in HEK293T cells transfected with the pGreenfire NF-κB plasmid. This is a plasmid that has NF-κB response elements (TRE) coupled to GFP and luciferase expression. When the NF-κB is activated by TNF-α, it binds to the TRE and induces GFP expression, and the fluorescence can be measured in a plate reader. The cells were authenticated with STR profiling, frozen down and these stocks were used in experiments. The HEK293T pGF NF-κB cells were kept in DMEM with 5% FBS and 1% P/S but, when seeded for the assay the medium was changed to DMEM FluoroBrite with 1% dialyzed FBS. All cell culture reagents were purchased from Thermo Fisher Scientific. Compounds were nano-dispensed (Echo acoustic dispenser) in 96-well, black/clear, assay plates (Corning #3904), duplicate plates, in 8-points dose-response curves, 1:2 dilutions, with DMSO compensation (0.3% DMSO). Cells were seeded at 30000 cells/well in medium containing 10 ng/mL of TNF-α (Sigma-Aldrich), except negative control wells which only contained cells in medium. Cells were cultured for 24 hours in a humidified incubator at 37 °C with 5% CO2 after which the GFP fluorescence was measured in a Sense plate reader (Hidex) with ex485/em535. The RFU data from the duplicate plates were combined to calculate % inhibition of NF-κB activation and IC50-values were calculated using XLfit (IDBS). In parallel with the NF-κB assay, a CellTiterGlo (Promega) cell viability assay was run to exclude compounds affecting cell viability. Compounds were nano-dispensed (Echo acoustic dispenser) in assay plates in 11-points dose-response curves, 1:3 dilutions, without DMSO compensation, with duplicates on the same plate. Cells were seeded at 7500 cells/well in 25 µL medium (DMEM FluoroBrite with 1% dialyzed FBS) containing 10 ng/mL TNF-α and cultured for 24 hours, with column 24 containing only culture medium. After equilibration to room temperature, the CellTiterGlo reagents were mixed and 25 µL/well were added to the cell plate. After 2 min mixing of the plate on an orbital shaker, the plate was incubated for 10 min at room temperature followed by luminescence reading in Sense. The cell viability was calculated compared to untreated control wells and the EC50 values were determined in XLfit (IDBS). […]

[4] = tested on: A2780 cells; assay: Cancer cell viability assay (resazurin), A2780; assay type: cell-based; conditions: two independent experiments; for percentage cell viability: A2780, 100 μM, 100 µM; for viability at 100 µM: Homo sapiens, A2780, A2780, 100 μM, read-out: percentage cell viability
Experimental: (§1) Three different cancer cell lines A2780 (ovarian cancer, ECACC 93112519), A549 (lung cancer, ATCC 60150896) and HCT116 (colon cancer, ATCC CCL-247), and one immortalized fibroblast cell line (BJhTERT) as control, were seeded in black/clear 384-well plates (Corning #3764), 50 µL/well, containing 11 concentrations, nano-dispensed, dose-response curves of the test compounds. A2780, HCT116, and HEK293T cell lines were authenticated with STR profiling, frozen down, and these stocks were used in experiments. The A2780 cells were cultured in RPMI 1640, the A549 and BJhTERT cells in DMEM, and the HCT116 cells in McCoys 5 A medium. All media were supplemented with 10% FBS and 1% P/S. All cell culture media, additives, and reagents were purchased from Thermo Fisher Scientific. The cell plates were incubated 72 hours in a humidified incubator at 37 °C with 5% CO2, after which resazurin (Sigma-Aldrich), 10 µL/well, was added to a final concentration of 10 µg/mL. The plates were incubated for 6 hours with resazurin followed by fluorescence readings in a Sense plate reader (Hidex), resorufin protocol (ex 544 nm/em 595 nm). The cell viability was calculated compared to untreated control wells and the EC50 values were determined in XLfit (IDBS).

[5] = tested on: A549 cells; assay: Cancer cell viability assay (resazurin), A549; assay type: cell-based; conditions: two independent experiments; for percentage cell viability: A549, 100 μM, 100 µM; for viability at 100 µM: Homo sapiens, A549, A549, 100 μM, read-out: percentage cell viability
Experimental: as §1

[6] = tested on: HCT116 cells; assay: Cancer cell viability assay (resazurin), HCT116; assay type: cell-based; conditions: two independent experiments; for percentage cell viability: HCT116, 100 μM, 100 µM; for viability at 100 µM: Homo sapiens, HCT-116, HCT116, 100 μM, read-out: percentage cell viability
Experimental: as §1

[7] = Cell viability assay (resazurin), BJhTERT non-transformed control; assay type: cell-based; conditions: human, BJhTERT, 100 μM, two independent experiments; read-out: percentage cell viability
Experimental: (§2) A2780, HCT116, and HEK293T cell lines were authenticated with STR profiling, frozen down, and these stocks were used in experiments. […] All media were supplemented with 10% FBS and 1% P/S. All cell culture media, additives, and reagents were purchased from Thermo Fisher Scientific. The cell plates were incubated 72 hours in a humidified incubator at 37 °C with 5% CO2, after which resazurin (Sigma-Aldrich), 10 µL/well, was added to a final concentration of 10 µg/mL. […] The cell viability was calculated compared to untreated control wells and the EC50 values were determined in XLfit (IDBS).

[8] = tested on: BJhTERT cells; assay: as above; assay type: cell-based; conditions: BJhTERT, 100 μM, two independent experiments
Experimental: as §2

[9] = biological target: MTH1 (Homo sapiens, UniProt P36639); assay: biochemical
Experimental: Inhibition of the following enzymes was assessed in the selectivity assays: apurinic/apyrimidinic endonuclease (APE1), endonuclease 8-like 1 (NEIL1), oxidized purine nucleoside triphosphate hydrolase (MTH1) and single-strand selective monofunctional uracil DNA glycosylase (SMUG1). BER enzymes were assayed with a similar strategy as OGG1, using identical DNA sequences surrounding the substrate lesion and the same reaction buffer containing 2 nM APE1. To assess SMUG1 inhibition, a 375 nM substrate containing uracil opposite guanine and 0.3 U SMUG1 enzyme (M0336 from New England Biolabs) was used. To assess NEIL1 inhibition, a 20 nM substrate containing thymidine glycol opposite adenine and 10 nM NEIL1 was used. To assess APE1 inhibition, an UNG2 substrate was pre-treated with E. coli Uracil-DNA glycosylase (New England Biolabs M0280) to generate an AP-site opposite adenine, which was used at 10 nM concentration in the presence of 0.1 nM APE1. All BER inhibition assays were in the linear range and less than 40% of the total substrate had been consumed at readout. The experiments were performed in three independent replicates and the percentage inhibition was calculated relative to the signal of a DMSO-treated control. To assess MTH1 inhibition, MTH1-catalyzed dGTP hydrolysis was coupled to inorganic pyrophosphatase (PPase), thereby releasing inorganic phosphate. The produced free phosphate was then detected using the malachite green assay[76]. […] Substrate concentration at the Km value for the respective substrate was chosen if possible. Inhibition using 100 μM compound was tested in reaction buffer (100 mM Tris-Acetate pH 8.0, 10 mM magnesium acetate, 40 mM NaCl, 1 mM DTT, and 0.005% Tween-20). Samples were incubated with shaking at 22 °C for 15 minutes. The reaction was then stopped by the addition of the malachite green reagent[76]. Absorbance was read at 630 nm using a Hidex Sense plate reader after a period of incubation with the methylene green reagent of 15 minutes. The experiment was performed in three independent replicates and percentage inhibition was calculated relative to the signal of a DMSO-treated control.

[10] = Table S5, ± SD, read-out: pIC50 (converted)

Row | Structure (SMILES) | IC50 [1, 10] [µM] | ∆Tm (K) [2] [K] | EC50 [3] [µM] | percentage cell viability [4] [%] | viability at 100 µM [4] [%] | percentage cell viability [5] [%] | viability at 100 µM [5] [%] | percentage cell viability [6] | viability at 100 µM [6] [%] | viability at 72 h, 100 µM [7] [%] | percentage cell viability [8] | IC50 ([1]; Figure 3B source data, three independent experiments, read-out: IC50 OGG1) | IC50 [9]
1 | Cc1nn(-c2ccc(CC(=O)Nc3noc4c3CCCC4)cc2)c2ccccc12 [compound 10] | 1.29 | 4.8 ± 0.4 | 6.61 | 1.45 | 0.84 | 6.63 | 5.97 | 2.45% | 2 | 8.08 | 8.77% | – | –
2 | Cc1nc(-c2ccc(CC(=O)Nc3noc4c3CCCC4)cc2F)c(C)[nH]1 [compound 18] | 0.832 | 7.8 | 11.7 | 4.22 | 3.84 | 56.99 | 53.3 | 53.92% | 45.2 | 38.1 | 41.01% | 0.589 µM and 0.638 µM and 0.615 µM | 18.4 µM and 20 µM and 18.5 µM
3 | Cc1nn(-c2ccc(CC(=O)Nc3noc4c3CCCC4)cc2)c2ccc(N)cc12 [compound 14] | 9.77 | – | 6.61 | 5.95 | 3.81 | 28.85 | 28.3 | 30.89% | 26 | 38.5 | 41.42% | – | –
4 | Cc1nc(-c2ccc(CC(=O)Nc3noc4c3CCCC4)c(F)c2)c(C)[nH]1 [compound 20] | 0.741 | 8.6 ± 0.5 | 20.4 | 2.93 | 2.84 | 35.78 | 35 | 15.72% | 13 | 23.9 | 24.23% | – | –
5 | O=C(Cc1ccc(-n2nc(Cl)c3ccccc32)cc1)Nc1noc2c1CCCC2 [compound 12] | 10.5 | 2.3 | 5.5 | 0.88 | 1.08 | 10.09 | 12.3 | 2.49% | 3.25 | 30.1 | 28.88% | – | –
6 | Cc1nc(-c2ccc(CC(=O)Nc3noc4c3CCCC4)nc2)c(C)[nH]1 [compound 22] | 1.95 | 6.3 | 28.2 | 65.16 | 50.2 | 96.69 | 79.4 | 64.01% and 103.96% | – | – | 76.15% and 96.63% | – | –
